Measured values reported in US7605280B2, “Anthraquinone and its derivatives” (Biostatus Limited, priority 1998, dated 2009).
“And” between values parts separate entries of the source, which are not always exact repeats. Equal entries are not always repeated.

Tested on: SUD4 cells
Assay: FACScan (Cytometer C) flow cytometric analysis of DRAQ5-labelled cells
Assay type: cell-based, human
Experimental: HL60 (human promyelocytic-leukaemia cell line) and SUD4 (human B cell lymphoma cell line) were grown as suspension cultures-in-RMPI medium with 10% foetal calf serum, 1 mM glutamine and antibiotics and incubated at 37° C. in an atmosphere of 5% CO2 in air. For flow cytometry experiments, asynchronously growing suspension cultures were diluted to 2.5-4>10^5 cells/ml at 2 h prior to drug treatment. Cell cycle-perturbed populations were obtained by treating SUD4 cells with the drug etoposide (VP-16-213) at 0.25 μM for 18h. Cells were treated with DRAQ5 and FDA as described above. Cell concentrations were determined using a Coulter counter and cell cycle distribution determined using an algorithm for the normal distibution of fluorescence intensity profiles for fluorochrome stained G1 and G2 cells.
Suspension cultures were analysed by flow cytometry without washing. Human blood was obtained using routine venepuncture of a healthy donor and samples manipulated using standard haematological procedures for the isolation of mononuclear blood cells and surface antigen recognition using antibody panels (see Table 1).
Cells were analysed using one of four flow cytometers according to the excitation requirements. • Cytometer A: Single beam high power 647 nm krypton laser excitation: The system was a custom-built cytometer and incorporated an Innova 3000K krypton laser (Coherent Corp., Palo Alto, Calif., USA) tuned to the 647 nm line. Forward light scatter, 90° light scatter and fluorescence emissions were collected for 1×10^4 cells using the 90° light scatter parameter as the master signal. The optical system permitted the analysis of various fluorescence emission wavelengths including: >715 nm (termed low infra-red) and, as reported here >780 nm fluorescence (infra-red ). Forward and 90° light scatter were analysed for the identification of cell debris. Laser power was set at 200 mW and linear amplifiers were used for the fluorescence signals. The analysis optics included a 675 nm cold dichroic mirror, ambient laboratory temperature was approximately 12° C. and the sheath reservoir was maintained at 10° C. Filters were supplied by Melles Griot. Median, mean and mode parameters were calculated for the distribution of fluorescence intensity-values throughout a given cell population. In all experiments, median and mean values produced very similar results. Median values alone are reported since this parameter is less affected by the presence of highly fluorescent cells beyond the upper limit for quantification. • Cytometer B: Dual beam low power 633 nm/high power 488 nm laser excitation: The system was a FACS 440 cell sorter (Becton Dickinson Inc., Cowley, UK) incorporating a Spectra Physics argon ion laser (max 500 mW output), tuned to the 488 nm line (100 mW output), and a secondary Spectra Physics 156 helium-neon laser emitting at 633 nm (emitting <5 mW), with a temporal beam separation of about 30 μsec. Forward light scatter, 90° light scatter and fluorescence emissions were collected for 1×10^4 cells using the forward light scatter parameter as the master signal from the primary 488 nm beam, while side scatter was collected through a 488/10 nm band-pass filter. The analysis optics included: i) a cold dichroic mirror (transmitting >675 nm), ii) fluorescence from fluorescein excited by the 488 nm beam detected at a PMT guarded by a 535/15 nm band-pass filter with no signal delay, and iii) a red-sensitive PMT with an appropriate delay, additionally guarded by a 620 nm long-pass filter, to detect the transmitted beam of DRAQ5-associated fluorescence at wavelengths beyond 675 nm (high-red and extending into the infra red region of the spectrum) Forward and 90° light scatter were analysed to exclude any cell debris. All parameters were acquired at 256 channel resolution with Consort 30 software (Becton Dickinson) and subsequently analysed with WinMDI software (J. Trotter, La Jolla, Calif.). […]

CN(C)CCNc1ccc(O)c2c1C(=O)c1c(O)ccc(NCCN(C)C)c1C2=O [DRAQ5]
DRAQ5 concentration at which staining saturates (5 min at room temperature, SUD4, lymphocytes, monocytes (FIG. 8)): ≥ 10 µM
increase of mean fluorescence for G2 arrested populations (Preparation 1, VP-16 arrested versus asynchronous cells): 1.7 fold
Mean fluorescence intensity (±sd) of gated population (Preparation 1, 20 μM DRAQ5, 120 min, FL3): 645.1 ± 177.7
Mean fluorescence intensity (±sd) of gated population (Preparation 1, cells pretreated 0.25 μM VP-16 × 18 h, 20 μM DRAQ5, 5 min): 891.8 ± 126.4
Mean fluorescence intensity (±sd) of gated population (Preparation 1 viable cultured cells, 20 μM DRAQ5, 5 min, FL3): 499.4 ± 143.3 and 532.4 ± 148.3
Mean fluorescence intensity (±sd) of gated population (Preparation 2, cells pretreated 0.25 μM VP-16, 20 μM DRAQ5, 5 min): 902.7 ± 117.1
Mean fluorescence intensity (±sd) of gated population (Preparation 2 surface antigen analysis, 20 μM DRAQ5, 5 min): 564.3 ± 147.2
